The structures appear in SMILES notation. Where two headings read alike, the source gives them in different places. A value given as a limit tells only on which side of the number the result lay.

Results on eight molecules are retold here after patent publication US8344004B2, “Cyclic pyridyl-N-[1,3,4]-thiadiazol-2-yl-benzene sulfonamides, processes for their preparation and their use as pharmaceuticals” (Sanofi, priority 2007, dated 2013).

Test [1] addresses T1, human PPARgamma (Homo sapiens, UniProt P37231).
T1 construct: amino acids I152-Y475; expressed in transfected cells; host or cells: HEK cells, transiently transfected with pcDNA3-GAL4-humanPPARgammaLBD
T1 sequence (P37231 182-477 isoform P37231-2 limits assumed): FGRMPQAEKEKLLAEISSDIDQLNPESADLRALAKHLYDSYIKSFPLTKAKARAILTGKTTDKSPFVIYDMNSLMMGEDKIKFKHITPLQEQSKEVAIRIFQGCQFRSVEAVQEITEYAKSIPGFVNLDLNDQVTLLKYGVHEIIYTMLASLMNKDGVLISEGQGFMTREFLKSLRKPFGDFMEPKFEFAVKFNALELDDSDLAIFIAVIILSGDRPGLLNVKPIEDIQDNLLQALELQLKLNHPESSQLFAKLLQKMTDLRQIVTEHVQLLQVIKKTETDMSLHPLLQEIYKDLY
In words: Cellular PPARgamma assay (transiently transfected HEK cells, luciferase reporter). The format is cell-based. Conditions: GAL4-humanPPARgammaLBD. An excerpt:
A transient transfection system is employed to determine the cellular PPARgamma activity of PPAR agonists. It is based on the use of a luciferase reporter plasmid (pGL3basic-5×GAL4-TK) and of a PPARgamma expression plasmid (pcDNA3-GAL4-humanPPARgammaLBD). Both plasmids are transiently transfected into human embryonic kidney cells (HEK cells). There is then expression in these cells of the fusion protein GAL4-humanPPARgammaLBD which binds to the GAL4 binding sites of the reporter plasmid. In the presence of a PPARgamma-active ligand, the activated fusion protein GAL4-humanPPARgammaLBD induces expression of the luciferase reporter gene, which can be detected in the form of a chemiluminescence signal after addition of a luciferase substrate. As a difference from the stably transfected PPARalpha reporter cell line, in the cellular PPARgamma assay the two components (luciferase reporter plasmid and PPARgamma expression plasmid) are transiently transfected into HEK cells because stable and permanent expression of the PPARgamma fusion protein is cytotoxic.
The luciferase reporter plasmid pGL3basic-5×GAL4-TK is based on the vector pGL3basic from Promega. The reporter plasmid is prepared by cloning five binding sites of the yeast transcription factor GAL4 (each binding site with the sequence 5′-CTCGGAGGACAGTACTCCG-3′), together with a 160 bp-long thymidine kinase promoter section (Genbank Accession # AF027128) 5′-upstream into pGL3basic. 3′-downstream of the thymidine kinase promoter is the complete luciferase gene from Photinus pyralis (Genbank Accession # M15077) which is already a constituent of the plasmid pGL3basic used. The cloning and sequencing of the reporter plasmid pGL3basic-5×GAL4-TK took place in analogy to the description in Sambrook J. et. al. (Molecular cloning, Cold Spring Harbor Laboratory Press, 1989).
The PPARgamma expression plasmid pcDNA3-GAL4-humanPPARgammaLBD was prepared by first cloning the cDNA coding for amino acids 1-147 of the yeast transcription factor GAL4 (Genbank Accession # P04386) into the plasmid pcDNA3 (from Invitrogen) 3′-downstream of the cytomegalovirus promoter. Subsequently, the cDNA of the ligand-binding domain (LBD) of the human PPARgamma receptor (amino acids I152-Y475; Accession # g1480099) 3′-downstream of the GAL4 DNA binding domain. Cloning and sequencing of the PPARgamma expression plasmid pcDNA3-GAL4-humanPPARgammaLBD again took place in analogy to the description in Sambrook J. et. al. (Molecular cloning, Cold Spring Harbor Laboratory Press, 1989). Besides the luciferase reporter plasmid pGL3basic-5×GAL4-TK and the PPARgamma expression plasmid pcDNA3-GAL4-humanPPARgammaLBD, also used for the cellular PPARgamma assay are the reference plasmid pRL-CMV (from Promega) and the plasmid pBluescript SK(+) from Stratagene. All four plasmids were prepared using a plasmid preparation kit from Qiagen, which ensured a plasmid quality with a minimal endotoxin content, before transfection into HEK cells.
The activity of PPARgamma agonists is determined in a 4-day assay which is described below. Before the transfection, HEK cells are cultivated in DMEM (#41965-039, Invitrogen) which is mixed with the following additions: 10% FCS (#16000-044, Invitrogen), 1% penicillin-streptomycin solution (#15140-122, Invitrogen) and 2 mM L-glutamine (#25030-024, Invitrogen).
Firstly, solution A, a transfection mixture which contains all four plasmids previously described in addition to DMEM, is prepared. […]

For test [2], the target named is T2, human PPARdelta (Homo sapiens, UniProt Q03181).
T2 construct: amino acids S139-Y441; expressed in transfected cells; host or cells: HEK cells, stably transfected (pcDNA3, CMV promoter)
T2 sequence (Q03181 139-441): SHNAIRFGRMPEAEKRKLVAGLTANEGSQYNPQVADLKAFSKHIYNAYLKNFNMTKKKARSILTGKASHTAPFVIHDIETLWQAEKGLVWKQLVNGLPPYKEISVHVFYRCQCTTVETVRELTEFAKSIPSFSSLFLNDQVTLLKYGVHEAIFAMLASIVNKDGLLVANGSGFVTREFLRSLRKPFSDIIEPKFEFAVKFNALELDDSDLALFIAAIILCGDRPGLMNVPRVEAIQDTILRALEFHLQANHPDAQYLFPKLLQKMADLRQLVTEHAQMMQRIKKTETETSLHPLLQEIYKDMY
Kind of test: Cellular PPARdelta assay (stably transfected HEK luciferase reporter cell line). The format is cell-based. Conditions: GR-GAL4-humanPPARdelta-LBD. As for the experimental part:
The PPARalphareporter cell line is cultivated to 80% confluence in DMEM (#41965-039, Invitrogen) which is mixed with the following additions: 10% cs-FCS (fetal calf serum; #SH-30068.03, Hyclone), 0.5 mg/ml zeocin (#R250-01, Invitrogen), 0.5 mg/ml G418 (#10131-027, Invitrogen), 1% penicillin-streptomycin solution (#15140-122, Invitrogen) and 2 mM L-glutamine (#25030-024, Invitrogen). The cultivation takes place in standard cell culture bottles (# 353112, Becton Dickinson) in a cell culture incubator at 37° C. in the presence of 5% CO2. The 80%-confluent cells are washed once with 15 ml of PBS (#14190-094, Invitrogen), treated with 3 ml of trypsin solution (#25300-054, Invitrogen) at 37° C. for 2 min, taken up in 5 ml of the DMEM described and counted in a cell counter. After dilution to 500.000 cells/ml, 35,000 cells are seeded in each well of a 96 well microtiter plate with a clear plastic base (#3610, Corning Costar). The plates are incubated in the cell culture incubator at 37° C. and 5% CO2 for 24 h.
PPARalpha agonists to be tested are dissolved in DMSO in a concentration of 10 mM. This stock solution is diluted in DMEM (#41965-039, Invitrogen) which is mixed with 5% cs-FCS (#SH-30068.03, Hyclone), 2 mM L-glutamine (#25030-024, Invitrogen) and the previously described antibiotics (zeocin, G418, penicillin and streptomycin). Test substances are tested in 11 different concentrations in the range from 10 μM to 100 pM.
The medium of the PPARalpha reporter cell line seeded on day 1 is completely removed by aspiration, and the test substances diluted in medium are immediately added to the cells. The dilution and addition of the substances is carried out by a robot (Beckman FX). The final volume of the test substances diluted in medium is 100 μl per well of a 96 well microtiter plate. The DMSO concentration in the assay is less than 0.1% v/v in order to avoid cytotoxic effects of the solvent.
The assay plates are incubated in an incubator at 37° C. and 5% CO2 for 24 h.
The PPARalpha reporter cells treated with the test substances are removed from the incubator, and the medium is aspirated off. The cells are lyzed by pipetting 50 μl of Bright Glo reagent (from Promega) into each well of a 96 well microtiter plate. After incubation at room temperature in the dark for 10 minutes, the microtiter plates are measured in the luminometer (Trilux from Wallac). The measuring time for each well of a microtiter plate is 1 sec.
The raw data from the luminometer are transferred into a Microsoft Excel file. Dose-effect plots and EC50 values of PPAR agonists are calculated using the XL.Fit program as specified by the manufacturer (IDBS).
The potency of substances which bind to human PPARdelta and activate it in an agonistic manner is analyzed using a stably transfected HEK cell line (HEK=human embryo kidney) which is referred to here as PPARdelta reporter cell line. In analogy to the assay described for PPARalpha, the PPARdelta reporter cell line also contains two genetic elements, a luciferase reporter element (pdeltaM-GAL4-Luc-Zeo) and a PPARdelta fusion protein (GR-GAL4-humanPPARdelta-LBD) which mediates expression of the luciferase reporter element depending on a PPARdelta ligand. […] The luciferase which is formed can be detected by means of chemiluminescence via an appropriate substrate. […]

For test [3] the following is noted: diabetic animal model; cited from earlier work.
For test [4] the following is noted: obese, insulin resistant rhesus monkeys; cited from earlier work.
The conditions of test [5]: rhesus and cynomolgus monkeys; cited from earlier work.
The conditions of test [6]: two weeks clinical trials in healthy volunteers; cited from earlier work.

Take `CC(C)c1nnc(NS(=O)(=O)c2ccc(C3(CNc4ncc(C(F)(F)F)cc4Cl)CCCCC3)cc2)s1` [Example 1, 4-{1-[(3-Chloro-5-trifluoromethyl-pyridin-2-ylamino)-methyl]-cyclohexyl}-N-(5-isopropyl-[1,3,4]thiadiazol-2-yl)-benzenesulfonamide]: the results for the EC50 in test [1] and in test [2] were 26 nM and 60 nM, respectively.

Regarding `CC(C)c1nnc(NS(=O)(=O)c2ccc([C@@H]3CCC[C@H]3Nc3ncc(C(F)(F)F)cc3Cl)cc2)s1` [Example 2, Trans-4-[(1S,2R)-2-(3-chloro-5-trifluoromethyl-pyridin-2-ylamino)-cyclopentyl]-N-(5-isopropyl-[1,3,4]thiadiazol-2-yl)-benzene-sulfonamide], the EC50 in test [1] worked out at 647 nM; in test [2], 67 nM.

For `CC(C)c1nnc(NS(=O)(=O)c2ccc([C@@H]3CCC[C@@H]3Nc3ncc(C(F)(F)F)cc3Cl)cc2)s1` [Example 3, Cis-4-[(1S,2R)-2-(3-chloro-5-trifluoromethyl-pyridin-2-ylamino)-cyclopentyl]-N-(5-isopropyl-[1,3,4]thiadiazol-2-yl)-benzene-sulfonamide], the values for the EC50 in test [1] and in test [2] were 1800 nM and 1 nM, respectively.

For `CC(C)c1nnc(NS(=O)(=O)c2ccc(C3(CNc4ncc(C(F)(F)F)cc4Cl)CCCC3)cc2)s1` [Example 4, 4-{1-[(3-Chloro-5-trifluoromethyl-pyridin-2-ylamino)-methyl]-cyclopentyl}-N-(5-isopropyl-[1,3,4]thiadiazol-2-yl)-benzene-sulfonamide], the EC50 is 990 nM in test [1] and 220 nM in test [2].

For `CC(C)c1nnc(NS(=O)(=O)c2cc3c(cc2Cl)CC(Nc2ncc(C(F)(F)F)cc2Cl)C3)s1` (centres unmarked) [Example 8, 6-Chloro-2-(3-chloro-5-trifluoromethyl-pyridin-2-ylamino)-indan-5-sulfonic acid (5-isopropyl-[1,3,4]thiadiazol-2-yl)amide], the EC50 was > 10000 nM in test [1] and 779 nM in test [2].

For the molecule `CCCc1c(OCCCOc2ccc(OCC(=O)O)cc2)ccc(C(C)=O)c1O` [Example L-165041], the plasma cholesterol entry in test [3] is given as “raises plasma cholesterol”.

Consider `Cc1cc(SCc2sc(-c3ccc(C(F)(F)F)cc3)nc2C)ccc1OCC(=O)O` [GW501516], for which, in test [4], the HDL-cholesterol entry was “raises”, the insulin levels entry is “decreases”, the “plasma LDL-cholesterol” value is listed as “decreases” and the triglycerides entry is “decreases”.

Turning to `CCCc1c(OCCCSc2nnc(SCC(=O)O)s2)ccc(C(C)=O)c1O` [YM-16638], the plasma lipids result in test [5] is “significantly lowers”; in test [6], “acts in a similar manner”.
